Values after ≈ are worked out from the molar mass of the structure shown.
What was measured:
AECO001 (ATCC25922) = assay: MIC broth microdilution, AECO001; assay type: cell-based, E. coli; conditions: for MIC: Escherichia coli, ATCC25922, read-out: MIC AECO001
Outline: (§1)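 MICs come from broth microdilution in cation-adjusted Mueller-Hinton broth, final inoculum 3×10^5–7×10^5 CFU/mL, 18-24 hours at 35° C. Levofloxacin and QC strains served as assay controls.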

[1] = system: AECO063 (ATCC25922 bearing an acrAB mutation); assay: microbe, parasite or virus in culture; assay type: cell-based, E. coli; conditions: for MIC: Escherichia coli, ATCC25922, read-out: MIC AECO063
Outline: as §1

APAE001 (ATCC27853) = assay: MIC broth microdilution, APAE001; assay type: cell-based, P. aeruginosa; conditions: for MIC: Pseudomonas aeruginosa, ATCC27853, read-out: MIC APAE001, APAE001 is ATCC27853
Outline: as §1

[2] = system: APAE006 (strain of P. aeruginosa in which all efflux pumps are inactivated); assay: microbe, parasite or virus in culture; assay type: cell-based; conditions: for MIC: Pseudomonas aeruginosa, read-out: MIC APAE006, P. aeruginosa, all efflux pumps inactivated
Outline: (§2)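 CLSI-guided microdilution: bacteria passaged overnight at 35° C. on Mueller-Hinton agar, tested in cation-adjusted broth at a final 3×10^5–7×10^5 CFU/mL across 2-fold drug dilutions, read after 18-24 h at 35° C.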

[3] = system: APAE006 in the presence of 8 micrograms per milliliter of polymyxin B nonapeptide; assay type: cell-based, P. aeruginosa; conditions: in the presence of 8 micrograms per milliliter of polymyxin B nonapeptide
Outline: as §2

[4] = system: AABA1060 (clinical isolate of Acinetobacter baumannii); assay: MIC broth microdilution, AABA1060; assay type: cell-based; conditions: for MIC: Acinetobacter baumannii, read-out: MIC AABA1060
Outline: as §1

[5] = system: ASAU001 (laboratory strain of S. aureus, ATCC29213); assay: MIC broth microdilution, ASAU001; assay type: cell-based; conditions: for MIC: Staphylococcus aureus, ATCC29213, read-out: MIC ASAU001
Outline: as §1

AECO001 HSA AGP = assay: MIC broth microdilution, AECO001 HSA AGP; assay type: cell-based, E. coli; conditions: for MIC: Escherichia coli
Outline: as §1

SMILES | MIC (AECO001 (ATCC25922)) | MIC [1] | MIC (APAE001 (ATCC27853)) | MIC [2] | MIC APAE006 + PMBN [3] | MIC [4] | MIC [5] | MIC (AECO001 HSA AGP) | MIC AECO001 (AECO001 (ATCC25922); AECO001 is ATCC25922) | MIC AECO063 ([1]; ATCC25922 bearing an acrAB mutation) | MIC APAE001 (APAE001 (ATCC27853); APAE001 is ATCC27853) | MIC APAE006 ([2]; P. aeruginosa, all efflux pumps inactivated) | MIC AABA1060 ([4]; clinical isolate of Acinetobacter baumannii) | MIC ASAU001 ([5]; S. aureus ATCC29213) | MIC AECO001 HSA AGP (AECO001 HSA AGP)
NC[C@H](NC(=O)c1ccc(C#C/C=C/c2ccccc2)cc1)C(=O)NO [Example 104-2] | < 2 µg/mL | < 2 µg/mL | 2 to 16 µg/mL (≈ 5.72 to 45.8 µM) | < 2 µg/mL | A (MIC's of 2.0 μg/mL or less = A) | 16 to 64 µg/mL (≈ 45.8 to 183 µM) | 16 to 64 µg/mL (≈ 45.8 to 183 µM) | 2 to 16 µg/mL (≈ 5.72 to 45.8 µM) | – | – | – | – | – | – | –
CC(C)(O)[C@H](NC(=O)c1ccc(C#C/C=C/c2ccccc2)cc1)C(=O)NO [Example 104-3] | < 2 µg/mL | < 2 µg/mL | < 2 µg/mL | < 2 µg/mL | A (MIC's of 2.0 μg/mL or less = A) | < 2 µg/mL | 16 to 64 µg/mL (≈ 42.3 to 169 µM) | 2 to 16 µg/mL (≈ 5.29 to 42.3 µM) | – | – | – | – | – | – | –
C[C@@H](N)[C@H](NC(=O)c1ccc(C#C/C=C/c2ccccc2)cc1)C(=O)NO [Example 104-4] | < 2 µg/mL | < 2 µg/mL | < 2 µg/mL | < 2 µg/mL | A (MIC's of 2.0 μg/mL or less = A) | 2 to 16 µg/mL (≈ 5.5 to 44 µM) | 16 to 64 µg/mL (≈ 44 to 176 µM) | 2 to 16 µg/mL (≈ 5.5 to 44 µM) | – | – | – | – | – | – | –
O=C(CNC1CC1)NC[C@H](NC(=O)c1ccc(C#C/C=C/c2ccccc2)cc1)C(=O)NO [Example 105-1, N—[(S)-2-(2-Cyclopropylamino-acetylamino)-1-hydroxycarbamoyl-ethyl]-4-((E)-4-phenyl-but-3-en-1-ynyl)-benzamide] | < 2 µg/mL | < 2 µg/mL | 2 to 16 µg/mL (≈ 4.48 to 35.8 µM) | < 2 µg/mL | A (MIC's of 2.0 μg/mL or less = A) | 16 to 64 µg/mL (≈ 35.8 to 143 µM) | 16 to 64 µg/mL (≈ 35.8 to 143 µM) | 2 to 16 µg/mL (≈ 4.48 to 35.8 µM) | – | – | – | – | – | – | –
C[C@H](NCC(=O)NC[C@H](NC(=O)c1ccc(C#C/C=C/c2ccccc2)cc1)C(=O)NO)c1ccccc1 [Example 105-2, N—{(S)-1-Hydroxycarbamoyl-2-[2-((S)-1-phenyl-ethylamino)-acetylamino]-ethyl}-4-((E)-4-phenyl-but-3-en-1-ynyl)-benzamide] | < 2 µg/mL | < 2 µg/mL | 2 to 16 µg/mL (≈ 3.92 to 31.3 µM) | < 2 µg/mL | A (MIC's of 2.0 μg/mL or less = A) | 16 to 64 µg/mL (≈ 31.3 to 125 µM) | 16 to 64 µg/mL (≈ 31.3 to 125 µM) | < 2 µg/mL | – | – | – | – | – | – | –
C[C@@H](NC(=O)CNC1CC1)[C@H](NC(=O)c1ccc(C#C/C=C/c2ccccc2)cc1)C(=O)NO [Example 105-3] | – | – | – | – | A (MIC's of 2.0 μg/mL or less = A) | – | – | – | C (MIC's of greater than 16.0 μg/mL to 64.0 μg/mL = C) | B (MIC's of greater than 2.0 μg/mL to 16.0 μg/mL = B) | C (MIC's of greater than 16.0 μg/mL to 64.0 μg/mL = C) | B (MIC's of greater than 2.0 μg/mL to 16.0 μg/mL = B) | C (MIC's of greater than 16.0 μg/mL to 64.0 μg/mL = C) | C (MIC's of greater than 16.0 μg/mL to 64.0 μg/mL = C) | C (MIC's of greater than 16.0 μg/mL to 64.0 μg/mL = C)
C[C@@H](NCC(=O)NC[C@H](NC(=O)c1ccc(C#C/C=C/c2ccccc2)cc1)C(=O)NO)c1ccccc1 [Example 105-4] | < 2 µg/mL | < 2 µg/mL | 16 to 64 µg/mL (≈ 31.3 to 125 µM) | 2 to 16 µg/mL (≈ 3.92 to 31.3 µM) | A (MIC's of 2.0 μg/mL or less = A) | 16 to 64 µg/mL (≈ 31.3 to 125 µM) | 16 to 64 µg/mL (≈ 31.3 to 125 µM) | 2 to 16 µg/mL (≈ 3.92 to 31.3 µM) | – | – | – | – | – | – | –
C[C@@H](NCC(=O)N[C@H](C)[C@H](NC(=O)c1ccc(C#C/C=C/c2ccccc2)cc1)C(=O)NO)c1ccccc1 [Example 105-5] | 2 to 16 µg/mL (≈ 3.81 to 30.5 µM) | < 2 µg/mL | 16 to 64 µg/mL (≈ 30.5 to 122 µM) | 2 to 16 µg/mL (≈ 3.81 to 30.5 µM) | A (MIC's of 2.0 μg/mL or less = A) | 16 to 64 µg/mL (≈ 30.5 to 122 µM) | 16 to 64 µg/mL (≈ 30.5 to 122 µM) | 2 to 16 µg/mL (≈ 3.81 to 30.5 µM) | – | – | – | – | – | – | –
C[C@@H](O)[C@H](NC(=O)c1ccc(C=C(F)C#Cc2ccc(CN3CCOCC3)cc2)cc1)C(=O)NO [Example 109-1, 4-(2-fluoro-4-(4-(morpholinomethyl)phenyl)but-1-en-3-ynyl)-N-((2S,3R)-3-hydroxy-1-(hydroxyamino)-1-oxobutan-2-yl)benzamide] | < 2 µg/mL | < 2 µg/mL | 2 to 16 µg/mL (≈ 4.15 to 33.2 µM) | < 2 µg/mL | A (MIC's of 2.0 μg/mL or less = A) | 2 to 16 µg/mL (≈ 4.15 to 33.2 µM) | > 64 µg/mL | 2 to 16 µg/mL (≈ 4.15 to 33.2 µM) | – | – | – | – | – | – | –
COC(=O)[C@@H](NC(=O)c1ccc(C#C/C(F)=C/c2ccc(CN3CCOCC3)cc2)cc1)[C@@H](C)O [Example 109-2, (2S,3R)-methyl 2-(4-((Z)-3-fluoro-4-(4-(morpholinomethyl)phenyl)but-3-en-1-ynyl)benzamido)-3-hydroxybutanoate] | < 2 µg/mL | < 2 µg/mL | 2 to 16 µg/mL (≈ 4.16 to 33.3 µM) | < 2 µg/mL | A (MIC's of 2.0 μg/mL or less = A) | 2 to 16 µg/mL (≈ 4.16 to 33.3 µM) | 16 to 64 µg/mL (≈ 33.3 to 133 µM) | 2 to 16 µg/mL (≈ 4.16 to 33.3 µM) | – | – | – | – | – | – | –

Reference: patent US9617256B2 (priority 2007, dated 2017)
